For assay [1], the system named is spatial memory disorder induced by scopolamine. The assay is described as follows: Ameliorating effect on spatial memory disorder induced by scopolamine (Y-maze alternation behavior). The class given is in vivo, ddY male mice. To be noted: for Single administration [MED (mg/kg)]: minimum effective dose, 1 h before scopolamine 0.6 mg/kg s.c.; for Single administration [MED (mg/kg)] / # [MED (mg/kg)] Combined administration with donepezil: oral; for dose at which spatial memory disorder induced by scopolamine was significantly ameliorated: single oral administration; for # [MED (mg/kg)] Combined administration with donepezil: minimum effective dose of test compound, combined with donepezil 1 mg/kg. On the procedure: (§1) The pharmacological experiment to investigate ameliorating effect on spatial memory disorder induced by scopolamine was carried out by systemic administration to animals according to the following method of Itoh, T. et al. In addition, the pharmacological experiment to investigate ameliorating effect on spatial memory disorder induced by MK-801 was carried out by systemic administration to animals according to the following method of Maurice, T. et al.
(§2) The spatial memory test using Y-maze apparatus which was selected for the pharmacological experiment is a test to utilize the behavioral property of animals to enter into a new arm, avoiding the arm that they entered into just before (alternation behavior). This method is often used in order to study spatial working memory.
This experiment was carried out according to the method of Itoh, J., et al. [Eur. J. Pharmacol., 236, pp. 341-345 (1993)].
Ten to twelve ddY male mice weighing 28-34 g were used per one group in the experiment. A solution of scopolamine in physiological saline (concentration: 0.06 mg/ml) was subcutaneously administered to mice in a volume of 0.1 ml/10 g of body weight, i.e., 0.6 mg/kg. […] However, the vehicle control group was injected with physiological saline instead of scopolamine. Thirty minutes after the administration of scopolamine, the mice were placed at the end of the arm A of the Y-maze apparatus which was composed of three black acrylic trapezoid arms (bottom width: 3 cm, height of side wall: 12 cm, width of opened ceiling: 10 cm, length: 40 cm), wherein said three arms were connected at the one end of each arm to form Y-shape and another ends were closed, and the three arms were differentiated by the names as A, B and C respectively, and allowed to search freely the maze for 8 minutes. When the mouse was checked to enter into an arm at the length of not less than 10 cm from the entrance of the arm, the name of the arm (A, B or C) was recorded. For the final data gotten, the ratio of the number of the alternation behavior to that of the entries (obtained by subtracting 2 from the total number of arm entries) was estimated as the rate of alternation behavior.
In statistical analysis, the rate of alternation behavior in the amnesia control group was compared with that in the vehicle control group by the Wilcoxon rank sum test and it was checked if a significant amnesia was induced in the amnesia control group. Next, the efficacy of the test compounds in single use or in combination use of the test compounds with donepezil was evaluated in comparison between the amnesia control group and the single-administration groups using each one of the test compound A, the test compound B or donepezil; or in comparison between the amnesia control group and the combination groups of the test compound A or B and donepezil, by the nonparametric Dunnett multiple comparison test. The statistical calculation was carried out with SAS® System (Release 8.02, SAS Institute Inc.) and Preclinical Package Version 5.0 (SAS Institute Japan Ltd.).

The subject of assay [2] is spatial memory disorder induced by MK-801. Nature of the assay: Ameliorating effect on spatial memory disorder induced by MK-801 (Y-maze alternation behavior). As to conditions: for [MED (mg/kg)]: minimum effective dose, oral, 1 h before MK-801 0.1 mg/kg s.c., single administration. The class given is in vivo, ddY male mice. The protocol:
as §1, §2
This experiment was carried out according to the method of Maurice, T., et al. [Brain Res., 647, pp. 44-56 (1994)].
Ten to twelve ddY male mice weighing 26-36 g were used per one group in the experiment. A solution of MK-801 in physiological saline (concentration: 0.01 mg/ml) was subcutaneously administered to mice in a volume of 0.1 ml/10 g of body weight, i.e., 0.1 mg/kg. One hour before MK-801 administration, the groups of mice to which each test compound should be singly administered were orally treated with test compound A, test compound B or donepezil suspended in 0.5% tragacanth solution in a volume of 0.1 ml/10 g of body weight; and the animals in the amnesia control group and the vehicle control group orally received a 0.5% tragacanth solution in a volume of 0.1 ml/10 g of body weight. However, the vehicle control group was injected with physiological saline instead of MK-801. Twenty minutes after administration of MK-801, the mice were placed at the end of the arm A of the Y-maze apparatus which was composed of three black acrylic trapezoid arms (bottom width: 3 cm, height of side wall: 12 cm, width of opened ceiling: 10 cm, length: 40 cm), wherein said three arms were connected at the one end of each arm to form Y-shape and another ends were closed, and the three arms were differentiated by the names as A, B and C respectively, and allowed to search freely the maze for 8 minutes. When the mouse was checked to enter into an arm at the length of not less than 10 cm from the entrance of the arm, the name of the arm (A, B or C) was recorded. For the final data gotten, the ratio of the number of the alternation behavior to that of the entries (obtained by subtracting 2 from the total number of arm entries) was estimated as the rate of alternation behavior.
In statistical analysis, the rate of alternation behavior in the amnesia control group was compared with that in the vehicle control group by the Wilcoxon rank sum test and it was checked if a significant amnesia was induced in the amnesia control group. Next, the efficacy of the test compounds was evaluated in comparison between the amnesia control group and each group of test compound A, test compound B or donepezil by the nonparametric Dunnett multiple comparison test. The statistical calculation was carried out with SAS® System (Release 8.02, SAS Institute Inc.) and Preclinical Package Version 5.0 (SAS Institute Japan Ltd.).

Where a name gives a salt, the structure may show the parent alone.

Here are results for 5 compounds from patent US20080275075A1, “Medicine Comprising a Combination of an Acetylcholinesterase Inhibitor and a 5-Substituted-3-Oxadiazolyl-1,6-Naphthyridin-2(1H)-One Derivative” (priority 2004, published 2008).

For `COc1cc2c(cc1OC)C(=O)C(CC1CCN(Cc3ccccc3)CC1)C2` (centres unmarked) [Donepezil, Donepezil hydrochloride, reference compound], the “amelioration of spatial memory disorder induced by scopolamine” value in assay [1] (1 mg/kg, single administration) is listed as “not ameliorated”. Besides, in assay [1] (single administration), the “Single administration [MED (mg/kg)]” value is 10 mg/kg. For the same compound, the “dose at which spatial memory disorder induced by scopolamine was significantly ameliorated” value in assay [1] is not below 10 mg/kg. The “[MED (mg/kg)]” value in assay [2] is more than 15 mg/kg. The “amelioration of spatial memory disorder induced by MK-801” value in assay [2] (single oral administration) is “not ameliorated”.

On to `COc1cccc(-c2nccc3[nH]c(=O)c(-c4noc(C)n4)cc23)c1` [Test compound A, 3-(5-methyl-1,2,4-oxadiazol-3-yl)-5-(3-methoxyphenyl)-1,6-naphthyridin-2(1H)-one], for which, in assay [1] (scopolamine 0.6 mg/kg s.c.), the “# [MED (mg/kg)] Combined administration with donepezil” value was 0.03 mg/kg. Besides, the “Single administration [MED (mg/kg)]” value in assay [1] (single administration) was determined as 0.3 mg/kg. For the same compound, in assay [1], the “dose at which spatial memory disorder induced by scopolamine was significantly ameliorated” value is given as not below 0.3 mg/kg. The “[MED (mg/kg)]” value in assay [2] is 0.3 mg/kg. Moreover, the “dose at which spatial memory disorder induced by MK-801 was significantly ameliorated” value in assay [2] (single oral administration) was not below 0.3 mg/kg.

Turning to `CN1[C@@H]2C[C@@H](OC(=O)[C@H](CO)c3ccccc3)C[C@H]1[C@@H]1O[C@@H]12` [scopolamine, Scopolamine hydrobromide, reference compound], the “rate of alternation behavior” value in assay [1] (amnesia control group, scopolamine 0.6 mg/kg s.c., vehicle control group 63-70%) is reported as 39-46%.

Turning to `O=c1[nH]c2ccnc(-c3ccsc3)c2cc1-c1nc(C2CC2)no1` [Test compound B, 3-(3-cyclopropyl-1,2,4-oxadiazol-5-yl)-5-(3-thienyl)-1,6-naphthyridin-2(1H)-one], the “# [MED (mg/kg)] Combined administration with donepezil” value in assay [1] (scopolamine 0.6 mg/kg s.c.) was determined as 0.01 mg/kg. For the same compound, the “Single administration [MED (mg/kg)]” value in assay [1] (single administration) is listed as 0.1 mg/kg. In addition, the “dose at which spatial memory disorder induced by scopolamine was significantly ameliorated” value in assay [1] is reported as not below 0.1 mg/kg. In addition, the “[MED (mg/kg)]” value in assay [2] is reported as 0.1 mg/kg. Further, the “dose at which spatial memory disorder induced by MK-801 was significantly ameliorated” value in assay [2] (single oral administration) is not below 0.1 mg/kg.

Consider `C[C@]12N[C@H](Cc3ccccc31)c1ccccc12` [MK-801, dizocilipine maleate, reference compound], for which the “rate of alternation behavior” value in assay [2] (amnesia control group, MK-801 0.1 mg/kg s.c., vehicle control group 65-73%) was 45-47%.
